Results as given in US20260217767A1, “NOVEL A4B7 THIOETHER PEPTIDE DIMER ANTAGONISTS” (Protagonist Therapeutics, Inc., priority 2014, published 2026).
Like-named read-outs stand apart in the source and are kept apart here. *1 amine or outer side, *2 acyl side, *3 side chain or, on linkers, in order; H or OH if unused. Where a SMILES comes first, the peptide text is derived from it. Bridges are numbered along the chain shown (N, C = ends). Roman numbers before positions name the chains, in order. [ ]: non-standard residue; d: D form. Phe(4-CF3) = N[C@@H](Cc1ccc(C(F)(F)F)cc1)C(=O)O; Phe(4-tBu) = CC(C)(C)c1ccc(C[C@H](N)C(=O)O)cc1; Bip = N[C@@H](Cc1ccc(-c2ccccc2)cc1)C(=O)O; Diglycolyl = O=C(COCC(=O)[*:2])[*:1]; NMeR = CN[C@@H](CCCNC(=N)N)C(=O)O; β3hE = N[C@@H](CCC(=O)O)CC(=O)O; X1 = O=C(c1ccccc1C[*:2])[*:1]; Pen = CC(C)(S)[C@H](N)C(=O)O; hCys = N[C@@H](CCS)C(=O)O

Legend:
α4β1 = target: T1, α4β1 (Homo sapiens, UniProt P05556+P13612); test: α4β1-VCAM Competition ELISA; type: binding; settings: read-out: ELISA A4B1
T1 construct: purchased R&D Systems 5668-A4
Method: α4β1-VCAM Competition ELISA
A Nunc MaxiSorp plate was coated with rh VCAM-1/CD106 Fc chimera (R&D #862-VC) at 400 ng/well in 50 ul per well in 1×PBS and incubated overnight at 4° C. The solution was removed by shaking and then blocked with 250 ul of 1% BSA in 1×PBS per well. The wells were then incubated at room temperature for 1 hr with shaking. Each well was then washed once with wash buffer (50 mM Tris-HCl pH7.6, 100 mM NaCL, 1 mM MnCl2 or MgCl2, 0.05% Tween-20). 25 ul of serial dilutions of peptides starting at 200 μM in assay buffer (Assay buffer: 50 mM Tris-HCl pH7.6, 100 mM NaCl, 1 mM MnCl2 or MgCl2, 0.05% Tween-20) was added to each well. Additionally, 25 μl of α4β1 (R&D Systems #5668-A4) was added to each well at a fixed concentration of 120 nM. The final peptide and α4β1 concentrations were 100 μM and 60 nM, respectively. The plates were then incubated at 37° C. for 2 hr. The solution was then removed by shaking and each well was washed three times with wash buffer. 50 ul of 9F10 antibody at 4 ug/ml (purified mouse anti-human CD49d, BD Bioscience Cat #555502) was then added to each well, and the plate was incubated at room temperature for Ihr with shaking. The solution was again removed by shaking, and each well was washed three times with wash buffer. 50 μl of peroxidase-conjugated AffiniPure Goat anti-mouse IgG (Jackson immune research cat #115-035-003) diluted in 1:5000 in assay buffer was added to each well. The plate was incubated at room temperature for 30 min with shaking. Each well was then washed 3 times with wash buffer. 100 ul of TMB was then added to each well and closely observe during developing time. The reaction was stepped with 2N H2SO4 and absorbance was read at 450 nm.

[1] = Simulated Intestinal Fluid (SIF) Stability Assay; type: in vitro ADME; settings: pig, 37° C.; for half-life at 22 μM: simulated intestinal fluid (SIF) with 1% porcine pancreatin, pH 6.5, porcine pancreatin; for half-life: porcine pancreatin
Summary of the method: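 Peptide at 22 μM final was incubated at 37° C in blank FaSSIF pH 6.5 with 1% porcine pancreatin. Timed samples were quenched in acetonitrile/methanol/formic acid with internal standard and analysed by LC-MS/MS. Half-lives came from first-order exponential fits of percent remaining.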

[2] = thioether peptide dimers, Table 7
[3] = thioether monomer peptides, Table 6

T1 sequence (P13612 34-977 limits assumed): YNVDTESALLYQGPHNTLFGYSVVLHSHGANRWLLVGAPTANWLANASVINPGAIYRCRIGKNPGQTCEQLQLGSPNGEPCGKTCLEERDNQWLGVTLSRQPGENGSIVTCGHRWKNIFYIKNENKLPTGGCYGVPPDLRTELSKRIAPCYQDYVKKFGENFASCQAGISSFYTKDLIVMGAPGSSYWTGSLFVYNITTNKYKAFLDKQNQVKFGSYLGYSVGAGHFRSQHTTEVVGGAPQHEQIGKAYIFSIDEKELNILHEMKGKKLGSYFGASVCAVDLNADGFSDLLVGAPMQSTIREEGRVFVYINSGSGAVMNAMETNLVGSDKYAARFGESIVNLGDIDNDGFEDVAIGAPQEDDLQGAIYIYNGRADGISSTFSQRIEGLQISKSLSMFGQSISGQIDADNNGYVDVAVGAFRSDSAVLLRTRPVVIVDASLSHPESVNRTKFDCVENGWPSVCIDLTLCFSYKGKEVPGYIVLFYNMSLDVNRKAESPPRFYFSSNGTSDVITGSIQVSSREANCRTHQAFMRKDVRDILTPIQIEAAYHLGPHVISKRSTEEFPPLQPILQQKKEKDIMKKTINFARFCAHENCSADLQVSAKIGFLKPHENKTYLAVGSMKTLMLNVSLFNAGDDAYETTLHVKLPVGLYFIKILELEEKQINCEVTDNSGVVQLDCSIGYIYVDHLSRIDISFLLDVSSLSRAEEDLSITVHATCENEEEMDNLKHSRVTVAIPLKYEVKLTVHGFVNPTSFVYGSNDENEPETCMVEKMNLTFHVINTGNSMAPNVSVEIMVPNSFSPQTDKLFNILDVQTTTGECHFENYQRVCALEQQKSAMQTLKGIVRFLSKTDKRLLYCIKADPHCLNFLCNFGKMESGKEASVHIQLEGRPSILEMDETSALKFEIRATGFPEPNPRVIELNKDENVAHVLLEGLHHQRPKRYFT
T1 sequence (P05556 21-728 limits assumed): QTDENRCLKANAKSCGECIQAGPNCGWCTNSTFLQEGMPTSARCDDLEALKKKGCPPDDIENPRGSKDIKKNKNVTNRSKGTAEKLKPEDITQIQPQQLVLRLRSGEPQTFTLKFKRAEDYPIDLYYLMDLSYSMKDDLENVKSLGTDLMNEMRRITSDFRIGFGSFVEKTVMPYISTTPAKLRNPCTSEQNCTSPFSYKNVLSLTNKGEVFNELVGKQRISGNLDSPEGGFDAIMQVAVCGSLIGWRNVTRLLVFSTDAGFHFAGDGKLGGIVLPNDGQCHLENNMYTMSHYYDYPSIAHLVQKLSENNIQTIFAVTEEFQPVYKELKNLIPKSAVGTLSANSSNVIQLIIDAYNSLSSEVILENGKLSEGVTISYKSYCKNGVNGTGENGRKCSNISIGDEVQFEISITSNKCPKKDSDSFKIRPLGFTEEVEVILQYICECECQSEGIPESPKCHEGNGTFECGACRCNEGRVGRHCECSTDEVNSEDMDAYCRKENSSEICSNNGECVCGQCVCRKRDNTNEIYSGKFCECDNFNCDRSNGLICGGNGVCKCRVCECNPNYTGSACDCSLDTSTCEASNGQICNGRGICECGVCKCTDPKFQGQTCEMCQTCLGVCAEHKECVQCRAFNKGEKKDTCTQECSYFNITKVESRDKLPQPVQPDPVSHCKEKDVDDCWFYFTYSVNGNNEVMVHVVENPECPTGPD

SMILES	IC50 (α4β1; [2]) [nM]	half-life at 22 μM ([1]; monomers, Table 6) [min]	other results
CC(C)C[C@@H]1NC(=O)[C@H]([C@@H](C)O)NC(=O)[C@H](CC(=O)O)NC(=O)[C@H](CO)NC(=O)[C@H](CCCNC(=N)N)N(C)C(=O)CSC[C@@H](C(=O)N[C@@H](Cc2c[nH]c3ccccc23)C(=O)N[C@H](CCCCNC(=O)COCC(=O)NCCCC[C@@H](NC(=O)[C@H](Cc2c[nH]c3ccccc23)NC(=O)[C@@H]2CSCC(=O)N(C)[C@@H](CCCNC(=N)N)C(=O)N[C@@H](CO)C(=O)N[C@@H](CC(=O)O)C(=O)N[C@@H]([C@@H](C)O)C(=O)N[C@@H](CC(C)C)C(=O)N2)C(N)=O)C(N)=O)NC1=O [compound 143]	> 1000	–	–
CC(C)C[C@@H]1NC(=O)[C@H]([C@@H](C)O)NC(=O)[C@H](CC(=O)O)NC(=O)[C@H](CO)NC(=O)[C@H](CCCNC(=N)N)N(C)C(=O)c2ccccc2CSC(C)(C)[C@@H](C(=O)N[C@@H](Cc2ccc(-c3ccccc3)cc2)C(=O)N[C@@H](CCC(=O)O)CC(N)=O)NC1=O [compound 133] ([NMeR]SDTL[Pen][Bip][β3hE]-NH2; linker N-6 via X1)	–	> 180	–
CC(C)C[C@@H]1NC(=O)[C@H]([C@@H](C)O)NC(=O)[C@H](CC(=O)O)NC(=O)[C@H](CO)NC(=O)[C@H](CCCNC(=N)N)N(C)C(=O)c2ccccc2CSCC[C@@H](C(=O)N[C@@H](Cc2c[nH]c3ccccc23)C(=O)N[C@@H](CCC(=O)O)C(=O)N[C@H](CCCCNC(=O)COCC(=O)NCCCC[C@@H](NC(=O)[C@H](CCC(=O)O)NC(=O)[C@H](Cc2c[nH]c3ccccc23)NC(=O)[C@@H]2CCSCc3ccccc3C(=O)N(C)[C@@H](CCCNC(=N)N)C(=O)N[C@@H](CO)C(=O)N[C@@H](CC(=O)O)C(=O)N[C@@H]([C@@H](C)O)C(=O)N[C@@H](CC(C)C)C(=O)N2)C(N)=O)C(N)=O)NC1=O [compound 157] (I: [NMeR]SDTL[hCys]WE[dK]-NH2 / II: [NMeR]SDTL[hCys]WE[dK]-NH2; linker I:9-II:9 via Diglycolyl; linker I:N-I:6, II:N-II:6 via X1)	100 to 1000	–	half-life ([1]; dimers, Table 7): < 20 min
CC(C)C[C@@H]1NC(=O)[C@H]([C@@H](C)O)NC(=O)[C@H](CC(=O)O)NC(=O)[C@H](CO)NC(=O)[C@H](CCCNC(=N)N)N(C)C(=O)c2ccccc2CSC(C)(C)[C@@H](C(=O)N[C@@H](Cc2cccc3ccccc23)C(=O)N[C@H](CCC(=O)O)C(=O)N(C)[C@@H](CCCCN)C(N)=O)NC1=O [compound 69] (HELM PEPTIDE1{[meR].S.D.T.L.[Pen].[O=C([C@H](Cc1cccc2ccccc12)N[*:1])[*:2]].[dE].[meK].[am]}|CHEM1{[O=C(c1ccccc1C[*:2])[*:1]]}$PEPTIDE1,CHEM1,1:R1-1:R1|PEPTIDE1,CHEM1,6:R3-1:R2$$$V2.0)	–	> 180	–
CC(C)C[C@@H]1NC(=O)[C@H]([C@@H](C)O)NC(=O)[C@H](CC(=O)O)NC(=O)[C@H](CO)NC(=O)[C@H](CCCNC(=N)N)N(C)C(=O)c2ccccc2CSC(C)(C)[C@@H](C(=O)N[C@@H](Cc2ccc(C(C)(C)C)cc2)C(=O)N[C@@H](CCC(=O)O)CC(N)=O)NC1=O [compound 134] ([NMeR]SDTL[Pen][Phe(4-tBu)][β3hE]-NH2; linker N-6 via X1)	–	> 180	–
CC(=O)NCCCC[C@@H](NC(=O)[C@@H](CCC(=O)O)NC(=O)[C@H](Cc1c[nH]c2ccccc12)NC(=O)[C@H]1NC(=O)[C@H](CC(C)C)NC(=O)[C@H]([C@@H](C)O)NC(=O)[C@H](CC(=O)O)NC(=O)[C@H](CO)NC(=O)[C@H](CCCNC(=N)N)N(C)C(=O)c2ccccc2CSC1(C)C)C(N)=O [compound 81] (HELM PEPTIDE1{[meR].S.D.T.L.[Pen].W.[dE].[dK].[am]}|PEPTIDE2{[ac]}|CHEM1{[O=C(c1ccccc1C[*:2])[*:1]]}$PEPTIDE1,PEPTIDE2,9:R3-1:R2|PEPTIDE1,CHEM1,1:R1-1:R1|PEPTIDE1,CHEM1,6:R3-1:R2$$$V2.0)	–	–	IC50 (α4β1; [3]): 100 to 1000 nM
CC(C)C[C@@H]1NC(=O)[C@H]([C@@H](C)O)NC(=O)[C@H](CC(=O)O)NC(=O)[C@H](CO)NC(=O)[C@H](CCCNC(=N)N)N(C)C(=O)c2ccccc2CSC(C)(C)[C@@H](C(=O)N[C@@H](Cc2ccc(C(F)(F)F)cc2)C(=O)N[C@@H](CCC(=O)O)C(=O)N[C@H](CCCCNC(=O)COCC(=O)NCCCC[C@@H](NC(=O)[C@H](CCC(=O)O)NC(=O)[C@H](Cc2ccc(C(F)(F)F)cc2)NC(=O)[C@H]2NC(=O)[C@H](CC(C)C)NC(=O)[C@H]([C@@H](C)O)NC(=O)[C@H](CC(=O)O)NC(=O)[C@H](CO)NC(=O)[C@H](CCCNC(=N)N)N(C)C(=O)c3ccccc3CSC2(C)C)C(N)=O)C(N)=O)NC1=O [compound 166] (I: [NMeR]SDTL[Pen][Phe(4-CF3)]E[dK]-NH2 / II: [NMeR]SDTL[Pen][Phe(4-CF3)]E[dK]-NH2; linker I:9-II:9 via Diglycolyl; linker I:N-I:6, II:N-II:6 via X1)	25 to 100	–	half-life ([1]; dimers, Table 7): 30 min
CC(C)C[C@@H]1NC(=O)[C@H]([C@@H](C)O)NC(=O)[C@H](CC(=O)O)NC(=O)[C@H](CO)NC(=O)[C@H](CCCNC(=N)N)N(C)C(=O)c2ccccc2CSC(C)(C)[C@@H](C(=O)N[C@@H](Cc2c[nH]c3ccccc23)C(=O)N[C@@H](CCC(=O)O)C(N)=O)NC1=O [compound 96] (HELM PEPTIDE1{[meR].S.D.T.L.[Pen].W.E.[am]}|CHEM1{[O=C(c1ccccc1C[*:2])[*:1]]}$PEPTIDE1,CHEM1,1:R1-1:R1|PEPTIDE1,CHEM1,6:R3-1:R2$$$V2.0)	–	26	–
CC(C)C[C@@H]1NC(=O)[C@H]([C@@H](C)O)NC(=O)[C@H](CC(=O)O)NC(=O)[C@H](CO)NC(=O)[C@H](CCCNC(=N)N)N(C)C(=O)C(C)SC[C@@H](C(=O)N[C@@H](Cc2c[nH]c3ccccc23)C(=O)N[C@H](CCCCN)C(N)=O)NC1=O (single isomer, unassigned) [compound 144]	> 1000	–	half-life at 22 μM ([1]; dimers, Table 7): < 20 min
CC(C)C[C@@H]1NC(=O)[C@H]([C@@H](C)O)NC(=O)[C@H](CC(=O)O)NC(=O)[C@H](CO)NC(=O)[C@H](CCCNC(=N)N)N(C)C(=O)c2ccccc2CSC(C)(C)[C@@H](C(=O)N[C@@H](Cc2ccc3ccccc3c2)C(=O)N[C@H](CCC(=O)O)C(N)=O)NC1=O [compound 114] (HELM PEPTIDE1{[meR].S.D.T.L.[Pen].[O=C([C@H](Cc1ccc2ccccc2c1)N[*:1])[*:2]].[dE].[am]}|CHEM1{[O=C(c1ccccc1C[*:2])[*:1]]}$PEPTIDE1,CHEM1,1:R1-1:R1|PEPTIDE1,CHEM1,6:R3-1:R2$$$V2.0)	–	> 180	IC50 (α4β1; [3]): 25 to 100 nM
CC(C)C[C@@H]1NC(=O)[C@H]([C@@H](C)O)NC(=O)[C@H](CC(=O)O)NC(=O)[C@H](CO)NC(=O)[C@H](CCCNC(=N)N)N(C)C(=O)c2ccccc2CSC(C)(C)[C@@H](C(=O)N[C@@H](Cc2c[nH]c3ccccc23)C(=O)N[C@H](CCC(=O)O)C(=O)N[C@@H](CN)C(N)=O)NC1=O [compound 94] (HELM PEPTIDE1{[meR].S.D.T.L.[Pen].W.[dE].[NC[C@H](N[*:1])C(=O)[*:2]].[am]}|CHEM1{[O=C(c1ccccc1C[*:2])[*:1]]}$PEPTIDE1,CHEM1,1:R1-1:R1|PEPTIDE1,CHEM1,6:R3-1:R2$$$V2.0)	–	–	half-life ([1]; monomers, Table 6): > 180 min
CC(C)C[C@@H]1NC(=O)[C@H]([C@@H](C)O)NC(=O)[C@H](CC(=O)O)NC(=O)[C@H](CO)NC(=O)[C@H](CCCNC(=N)N)N(C)C(=O)c2ccccc2CSC[C@@H](C(=O)N[C@@H](Cc2c[nH]c3ccccc23)C(=O)N[C@@H](CCC(=O)O)C(=O)N[C@H](CCCCN)C(N)=O)NC1=O [compound 55] (HELM PEPTIDE1{[meR].S.D.T.L.C.W.E.[dK].[am]}|CHEM1{[O=C(c1ccccc1C[*:2])[*:1]]}$PEPTIDE1,CHEM1,1:R1-1:R1|PEPTIDE1,CHEM1,6:R3-1:R2$$$V2.0)	–	25	IC50 (α4β1; [3]): 100 to 1000 nM
CC(C)C[C@@H]1NC(=O)[C@H]([C@@H](C)O)NC(=O)[C@H](CC(=O)O)NC(=O)[C@H](CO)NC(=O)[C@H](CCCNC(=N)N)N(C)C(=O)c2ccccc2CSC(C)(C)[C@@H](C(=O)N[C@@H](Cc2c[nH]c3ccccc23)C(=O)N[C@H](CCC(=O)O)C(=O)N[C@@H](CCN)C(N)=O)NC1=O [compound 95] (HELM PEPTIDE1{[meR].S.D.T.L.[Pen].W.[dE].[Dab].[am]}|CHEM1{[O=C(c1ccccc1C[*:2])[*:1]]}$PEPTIDE1,CHEM1,1:R1-1:R1|PEPTIDE1,CHEM1,6:R3-1:R2$$$V2.0)	–	–	half-life ([1]; monomers, Table 6): > 180 min
